# How the values were obtained:
# K. pneumoniae = test: Agar overlay TTC assay, compound overlays; format: cell-based, Klebsiella pneumoniae; conditions: 30 nanomole aliquots of purified compound on filter paper
# S. aureus ATCC 10390 [1] = test: Estimated MIC, solution-phase microdilution absorbance assay with crude macroarray spot stock solutions; format: cell-based, Staphylococcus aureus; conditions: for MIC: Staphylococcus aureus, ATCC10390, 12 h
# Procedure: Spots from a new 69 member chalcone macroarray as well as the three heterocyclic macroarrays prepared earlier were punched out, cleaved, and eluted with acetonitrile. The resulting solutions were concentrated to a residue that was taken up in DMSO to form 2 mM stock solutions.
# From the stock solutions, microdilution assays in a 96 well plate starting at 50 μM were performed in quadruplicate. Each well contained 5 μL of the stock solution as well as 195 μL of a S. aureus culture. The turbidity of each well was measured after incubating 12 hours using a standard plate reader. Active compounds can be further diluted and the assay repeated.
# To acquire more quantitative antibacterial activity data about our compounds and verify our on-support assay results, we performed solution-phase absorbance assays that provided estimates of the minimum inhibitory concentration (MIC) of each macroarray member against S. aureus. Stock solutions (ca. 2 mM) were generated by cleaving and eluting 198 individual compounds from chalcone (3) and heterocyclic macroarrays (5, 7, and 8). […] The good overall purities of the crude macroarray compounds allowed for reasonable estimations of MICs.
# (§1) For estimated MIC determination, DMSO was added to the dried compound residue obtained from a single spot to afford ca. 100 μL of a 2 mM stock solution. Aliquots (5 μL) of these solutions were added to a 96-well plate, followed by 195 μL of diluted S. aureus 10390 (10^6 CFUs/mL) to yield ca. 50 μM final concentrations. The plates were swirled for 1 h to ensure compound dissolution, incubated for 12 h at 37° C., and the absorbance at 595 nm was recorded using a plate reader. […] Actual MIC values were determined for lead compounds resynthesized in solution using an analogous procedure with solutions of known concentration (see).
# Preparation of spot samples and controls. An aliquot of DMSO (ca. 100 μL depending on the loading of the parent hydroxyacetophenone) was added to the dried compound residue obtained after TFA cleavage and elution from a single spot. This afforded a 2.0 mM “spot stock” solution for each spot. A small aliquot of each “spot stock” solution was saved for subsequent LC-MS analysis.
# For estimated MIC screens, 5.0 μL portions of the “spot stock” solutions were added to the appropriate wells in a sterile, polystyrene 96-well plate to yield ca. 50 μM solutions (dependent on the initial loading of hydroxyacetopheneone and compound purity). To the positive and negative control wells, 5.0 μL of DMSO were added (positive controls contained bacteria but no compound, while negative controls had neither compound nor bacteria). All estimated MIC assays were performed in quadruplicate. Note: the MIC value is defined as the lowest concentration where no bacterial growth occurs.
# Representative estimated MIC assay procedure. This assay procedure is based in part on the method reported by Strøm et al.^xiii A 400 μL portion of overnight S. aureus 10390 culture was diluted with 100 mL of sterile LB broth to give ca. 10^6 CFUs per mL. Aliquots (195 μL) of this solution were added to all of the wells in a sterile 96-well plate (except for the negative control wells; 195 μL of sterile LB broth were added to these wells). The plates were placed on an orbital shaker table and gently swirled for 1 h to ensure compound dissolution, and then incubated (without shaking) for 12 h at 37° C. The absorbance at 595 nm was recorded using a plate reader.
# The original “spot stock” solutions of these compounds were diluted with DMSO to give ca. 25 and 13 μM final concentrations and tested for inhibitory activities using the procedure described above.
# S. aureus ATCC 10390 [2] = test: MIC determination with authentic compounds resynthesized in solution; format: cell-based, Staphylococcus aureus; set-up: MIC against S. aureus 10390: unit: uM; conditions: for MIC: Staphylococcus aureus, ATCC10390; for MIC against S. aureus 10390: values quoted in killing-curve protocol, unit not given
# Procedure: as §1
# (§2) Dose response growth inhibition curves were determined for each active compound (resynthesized in solution) against S. aureus 10390 (SA) and methicillin-resistant S. aureus 33591 (MRSA). […] MIC assays were performed in quadruplicate.
# K. pneumoniae ATCC 4352 = test: MIC determination, species selectivity; format: cell-based; conditions: Klebsiella pneumoniae, ATCC4352; authentic sample, only trans isomers of chalcones; error reflects step size
# Procedure: (§3) Each compound from Table 3 was tested for inhibitory activity at 2.5, 5, 7.5, 10, 15, 20, 25, and 30 μM in the susceptible overlaid strains: B. subtilis ATCC 6633, S. epidermidis ATCC 12228, and K. pneumoniae ATCC 4352. MIC assays were run in quadruplicate as described above (with shaking).
# [3] = tested on: S. epidermidis ATCC 12228; test: MIC determination, species selectivity; format: cell-based; conditions: Staphylococcus epidermidis, ATCC12228; authentic sample, only trans isomers of chalcones; error reflects step size
# Procedure: as §3
# [4] = tested on: B. subtilis subsp. spizizenii ATCC 6633; test: MIC determination, species selectivity; format: cell-based; conditions: Bacillus subtilis, ATCC6633; authentic sample, only trans isomers of chalcones; error reflects step size
# Procedure: as §3
# [5] = tested on: Methicillin-resistant S. aureus ATCC 33591 (MRSA); test: MIC determination with authentic compounds resynthesized in solution; format: cell-based; conditions: Staphylococcus aureus; Table 3; authentic sample, only trans isomers of chalcones; error reflects step size in the serial dilutions
# Procedure: as §1, §2
# S. aureus 10390 = test: Time-dependent bacterial killing curves; format: cell-based, Staphylococcus aureus; conditions: 0.5x to 4x MIC, 0-6 h
# Procedure: Solutions of compounds 4Bv, 6Ao, 9Cf, and linezolid were prepared in DMSO over a range of concentrations. […] At 0, 2, 4, and 6 h time points, […] samples were withdrawn from the test tubes, diluted into 10 mL of LB broth in a test tube, and swabbed in duplicate on agar plates to determine CFUs. These plates were incubated at 37° C. for 24 h, after which time the colonies were counted visually. […] Instead, 200 μL was removed from the test tube and directly swabbed on the agar plates.
# [6] = Table 2, serial dilution of stock solutions obtained by SPOT-synthesis, read-out: estimated MIC range
# [7] = Table 3, serial dilution of spot stock solutions of crude macroarray compounds, read-out: S. aureus Estimated MIC range
# [8] = Table 2, authentic sample synthesized according to standard techniques, read-out: observed MIC
# [9] = Table 3, authentic sample, only trans isomers of chalcones, error reflects step size in the serial dilutions, read-out: S. aureus MIC
MIC (S. aureus ATCC 10390 [1]; [7]),MIC (S. aureus ATCC 10390 [2]; [8]),MIC (S. aureus ATCC 10390 [2]; [9]),MIC [3],MIC [4],MIC [5],SMILES,susceptibility in agar overlay TTC assay (K. pneumoniae),"inhibition of S. aureus at the 12.5 μM level (S. aureus ATCC 10390 [1]; 12.5 μM, macroarray stock solutions diluted four fold)",MIC (S. aureus ATCC 10390 [1]; [6]),MIC (K. pneumoniae ATCC 4352),mode of activity (bacteriostatic or bactericidal) (S. aureus 10390),MIC against S. aureus 10390 (S. aureus ATCC 10390 [2])
25 to 50 µM,–,32.5 ± 1.2 µM,> 30 µM,17.5 ± 2.5 µM,31.2 ± 1.2 µM,"COc1cc(-c2cc(-c3ccc(Br)cc3)nc(C)n2)ccc1O [Compound 9Cf, 4-(4-bromophenyl)-6-(4-hydroxy-3-methoxyphenyl)-2-methylpyrimidine]",–,–,–,–,bacteriostatic,~32.5
–,0.75 ± 0.12 µM,0.6 ± 0.1 µM,–,–,0.9 ± 0.1 µM,"O=C(O)c1cn(C2CC2)c2cc(N3CCNCC3)c(F)cc2c1=O [Ciprofloxacin, ciprofloxacin, reference compound]",–,–,–,–,–,–
–,6 ± 0.5 µM,10 ± 1 µM,–,–,8 ± 1 µM,"CC(=O)NC[C@H]1CN(c2ccc(N3CCOCC3)c(F)c2)C(=O)O1 [Linezolid, linezolid, reference compound]",–,–,–,–,bacteriostatic,~10.0
12.5 to 25 µM,8.7 ± 1.3 µM,10 ± 0.5 µM,12.5 ± 2.5 µM,6.3 ± 1.2 µM,10 ± 0.5 µM,"Cc1nc(-c2ccc(O)cc2)cc(-c2cccc(Cl)c2Cl)c1C#N [Compound 6Al, 4-(2,3-dichlorophenyl)-6-(4-hydroxyphenyl)-2-methyl-3-cyanopyridine]",–,–,12.5 to 25 µM,–,–,–

SMILES,MIC (S. aureus ATCC 10390 [1]; [7]),MIC (S. aureus ATCC 10390 [2]; [8]),MIC (S. aureus ATCC 10390 [2]; [9]),MIC [3],MIC [4],MIC [5],susceptibility in agar overlay TTC assay (K. pneumoniae),"inhibition of S. aureus at the 12.5 μM level (S. aureus ATCC 10390 [1]; 12.5 μM, macroarray stock solutions diluted four fold)",MIC (S. aureus ATCC 10390 [1]; [6]),MIC (K. pneumoniae ATCC 4352),mode of activity (bacteriostatic or bactericidal) (S. aureus 10390),MIC against S. aureus 10390 (S. aureus ATCC 10390 [2])
"O=C(/C=C/c1c(Cl)ccc(Cl)c1Cl)c1cccc(O)c1 [Compound 4Bo, 3′-hydroxy-2,3,6-trichlorochalcone]",< 12.5 µM,6.5 ± 0.5 µM,10 ± 1 µM,12.5 ± 2.5 µM,8.8 ± 1.2 µM,10 ± 1 µM,weakly susceptible,complete inhibition,6.25 to 12.5 µM,> 250 µM,–,–

# From patent US8227616B2, “Cyanopyridine antibacterial agents and methods of use thereof” (Wisconsin Alumni Research Foundation, priority 2006, dated 2012)
